# Results published in US9193736B2, “PDE 10a inhibitors for the treatment of type II diabetes” (Janssen Pharmaceutica, NV, priority 2013, dated 2015).
# Where a name gives a salt, the structure may show the parent alone. Residues, ends and D or L forms follow the SMILES beside them. *: point of attachment. X1 = O=C(c1ccc(-c2c(C#Cc3ccc4ccccc4n3)nc3c(N4CCOCC4)ccnn23)cc1)*
# Legend:
# [1] = biological target: Human recombinant PDE10A2 (Homo sapiens (Human), UniProt Q9Y233); test: In vitro hPDE10a: human recombinant PDE10A2 scintillation proximity assay, IC50; format: biochemical; conditions: human recombinant PDE10A2, SPA, 60 nM cAMP; read-out: hPDE10a2 IC50
# Description: Cells were harvested and the phosphodiesterase protein was purified by metal chelate chromatography on Ni-sepharose 6FF. The affinity of the compounds of Formula (I) for phophodiesterases (PDE) was measured by a scintillation proximity assay (SPA). PDE Yttrium Silicate SPA beads allow PDE activity to be measured by direct binding of the primary phosphate groups of non-cyclic AMP or GMP to the beads via a complex iron chelation mechanism. The amount of bound tritiated product ([^3H]-AMP) is measured by liquid scintillation counting. The compounds were dissolved and diluted in 100% DMSO in polystyrene plates to a concentration of 100-fold the final concentration in the assay. […] After incubation, the reaction was stopped with 20 μL of stop solution, consisting of PDE SPA beads (17.8 mg beads/mL in 18 mM zinc sulphate). […] To measure the low control, no enzyme was added to the reaction mixture. Data were calculated as the percentage of inhibition of total activity measured in the absence of test compound (% control). […] For compounds tested more than once, the data points were aggregated.
# [2] = biological target: Rat recombinant PDE10a (rPDE10a) (Rattus norvegicus (Rat), UniProt Q9QYJ6); test: In vitro assay PDE10a: rat recombinant PDE10a SPA with 3H-cAMP substrate, IC50; format: biochemical; conditions: 60 nM cAMP, read-out: rPDE10a2 IC50
# Description: In Vitro Assay PDE10a Rat recombinant PDE10a (rPDE10a) was expressed in Sf9 cells using a recombinant rPDE10a baculovirus construct. Cells were harvested after 48 h of infection and the rPDE10a protein was purified by metal chelate chromatography on Ni-sepharose 6FF. Tested compounds were dissolved and diluted in 100% DMSO to a concentration 100 fold of the final concentration in the assay. […] The reaction was incubated for 60 min at rt. After incubation, the reaction was stopped with 20 μL of 17.8 mg/mL PDE SPA beads. […] For blank values the enzyme was omitted from the reaction and replaced by incubation buffer.
# Rat recombinant PDE10a (rPDE10a), sequence (Q9QYJ6 whole entry): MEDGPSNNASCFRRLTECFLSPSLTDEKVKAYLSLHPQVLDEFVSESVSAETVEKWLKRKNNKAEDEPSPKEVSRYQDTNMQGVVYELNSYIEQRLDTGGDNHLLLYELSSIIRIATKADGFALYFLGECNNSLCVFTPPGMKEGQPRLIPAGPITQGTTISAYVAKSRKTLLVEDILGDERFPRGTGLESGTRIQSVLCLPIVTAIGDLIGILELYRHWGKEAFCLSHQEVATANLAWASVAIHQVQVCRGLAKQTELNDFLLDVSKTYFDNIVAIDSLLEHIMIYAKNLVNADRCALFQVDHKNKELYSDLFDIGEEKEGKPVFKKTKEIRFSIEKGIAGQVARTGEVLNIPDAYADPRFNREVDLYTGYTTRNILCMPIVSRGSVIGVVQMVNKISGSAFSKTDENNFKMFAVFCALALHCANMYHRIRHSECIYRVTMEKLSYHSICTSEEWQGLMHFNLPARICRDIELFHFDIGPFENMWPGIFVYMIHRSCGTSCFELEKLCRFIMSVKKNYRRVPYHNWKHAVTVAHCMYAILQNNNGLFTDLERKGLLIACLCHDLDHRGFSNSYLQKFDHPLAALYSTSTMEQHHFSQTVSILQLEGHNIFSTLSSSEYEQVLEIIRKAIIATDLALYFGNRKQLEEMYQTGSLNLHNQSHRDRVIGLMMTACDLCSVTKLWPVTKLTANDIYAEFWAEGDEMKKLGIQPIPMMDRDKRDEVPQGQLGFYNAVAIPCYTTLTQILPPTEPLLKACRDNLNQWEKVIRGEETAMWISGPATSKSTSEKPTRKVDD
# Human recombinant PDE10A2, sequence (Q9Y233 267-1055): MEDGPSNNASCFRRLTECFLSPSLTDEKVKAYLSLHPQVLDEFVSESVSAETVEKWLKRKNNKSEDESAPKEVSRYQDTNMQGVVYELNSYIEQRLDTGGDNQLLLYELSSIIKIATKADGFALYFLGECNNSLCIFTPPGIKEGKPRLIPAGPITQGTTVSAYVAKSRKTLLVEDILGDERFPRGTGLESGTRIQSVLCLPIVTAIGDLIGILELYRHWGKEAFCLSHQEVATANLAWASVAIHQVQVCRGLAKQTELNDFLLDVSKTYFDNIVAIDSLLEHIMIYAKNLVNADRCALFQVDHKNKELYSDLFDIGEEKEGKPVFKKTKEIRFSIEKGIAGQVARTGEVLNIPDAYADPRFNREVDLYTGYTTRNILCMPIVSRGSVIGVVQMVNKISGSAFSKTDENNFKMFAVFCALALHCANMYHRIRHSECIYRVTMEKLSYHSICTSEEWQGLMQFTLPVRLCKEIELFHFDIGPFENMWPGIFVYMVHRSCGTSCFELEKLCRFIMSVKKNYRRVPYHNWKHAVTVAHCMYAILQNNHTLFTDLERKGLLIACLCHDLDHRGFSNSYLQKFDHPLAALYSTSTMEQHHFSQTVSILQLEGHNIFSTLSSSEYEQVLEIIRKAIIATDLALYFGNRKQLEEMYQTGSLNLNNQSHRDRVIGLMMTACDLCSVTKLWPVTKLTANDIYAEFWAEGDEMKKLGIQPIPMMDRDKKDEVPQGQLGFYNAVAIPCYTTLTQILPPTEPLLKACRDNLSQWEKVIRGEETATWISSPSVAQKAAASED
IC50 [1] [nM],IC50 [2] [nM],Structure (SMILES)
759,676,"O=C(Nc1ccc2ccccc2n1)c1nc2c(N3CCOCC3)ccnn2c1-c1ccc(N2CCNCC2)nc1 [Cpd 3, 8-Morpholino-3-(6-(piperazin-1-yl)pyridin-3-yl)-N-(quinolin-2-yl)imidazo[1,2-b]pyridazine-2-carboxamide trifluoroacetic acid salt]"
155,200,"c1ccc2nc(NCc3nc4c(N5CCOCC5)ccnn4c3-c3ccc(N4CCNCC4)nc3)ccc2c1 [Cpd 4, N-((8-Morpholino-3-(6-(piperazin-1-yl)pyridin-3-yl)imidazo[1,2-b]pyridazin-2-yl)methyl)quinolin-2-amine trifluoroacetic acid salt]"
126,457,"CN(C)c1ccc(-c2c(COc3ccc4ccccc4n3)nc3c(N4CCOCC4)ccnn23)cn1 [Cpd 5, N,N-dimethyl-5-(8-morpholino-2-((quinolin-2-yloxy)methyl)imidazo[1,2-b]pyridazin-3-yl)pyridin-2-amine methane sulfonic acid]"
692,447,"CCN(CC)c1ccc(-c2c(COc3ccc4ccccc4n3)nc3c(N4CCOCC4)ccnn23)cn1 [Cpd 7, N,N-diethyl-5-(8-morpholino-2-((quinolin-2-yloxy)methyl)imidazo[1,2-b]pyridazin-3-yl)pyridin-2-amine methane sulfonic acid]"
427,132,"O=S(=O)(Cc1nc2c(N3CCOCC3)ccnn2c1-c1ccc(N2CCNCC2)nc1)c1ccc2ccccc2n1 [Cpd 9, 4-(3-(6-(piperazin-1-yl)pyridin-3-yl)-2-((quinolin-2-ylsulfonyl)methyl)imidazo[1,2-b]pyridazin-8-yl)morpholine trifluoroacetic acid salt]"
43,17,"CN1CC=C(c2ccc(-c3c(COc4ccc5ccccc5n4)nc4c(N5CCOCC5)ccnn34)cn2)CC1 [Cpd 10, 4-(3-(1′-methyl-1′,2′,3′,6′-tetrahydro-[2,4′-bipyridin]-5-yl)-2-((quinolin-2-yloxy)methyl)imidazo[1,2-b]pyridazin-8-yl)morpholine]"
12,,"O=C(O)c1ccc(-c2c(/C=C/c3ccc4c(n3)CCCC4)nc3c(N4CCOCC4)ccnn23)cn1 [Cpd 107, (E)-5-(8-morpholino-2-(2-(5,6,7,8-tetrahydroquinolin-2-yl)vinyl)imidazo[1,2-b]pyridazin-3-yl)picolinic acid trifluoroacetic acid salt]"
5,,"O=c1ncn(-c2ccc(-c3c(/C=C/c4ccc5ccccc5n4)nc4c(N5CCOCC5)ccnn34)cc2F)[nH]1 [Cpd 158, (E)-1-(2-Fluoro-4-(8-morpholino-2-(2-(quinolin-2-yl)vinyl)imidazo[1,2-b]pyridazin-3-yl)phenyl)-1,2-dihydro-1,2,4-triazol-3-one]"
9,,"CC(=O)c1ccc(-c2c(C#Cc3ccc4ccccc4n3)nc3c(N4CCOCC4)ccnn23)cc1 [Cpd 159, 1-(4-(8-Morpholino-2-(quinolin-2-ylethynyl)imidazo[1,2-b]pyridazin-3-yl)phenyl)ethanone]"
4,,"c1ccc2nc(C3CC3c3cn4nccc(N5CCOCC5)c4n3)ccc2c1 (stereo not shown) [Cpd 161, 2-[2-(8-Morpholin-4-ylimidazo[1,2-b]pyridazin-2-yl)cyclopropyl]quinoline]"
9,,"O=c1[nH]nc(-c2ccc(-c3c(/C=C/c4ccc5ccccc5n4)nc4c(N5CCOCC5)ccnn34)cc2F)[nH]1 [Cpd 162, (E)-5-(2-Fluoro-4-(8-morpholino-2-(2-(quinolin-2-yl)vinyl)imidazo[1,2-b]pyridazin-3-yl)phenyl)-2H-1,2,4-triazol-3(4H)-one]"
12,,"O=C(O)c1ccc(-c2c([C@@H]3C[C@@H]3c3ccc4ccccc4n3)nc3c(N4CCOCC4)cc(Cl)nn23)cc1F [Cpd 165, 4-(6-Chloro-8-morpholino-2-((1R,2S)-2-(quinolin-2-yl)cyclopropyl)imidazo[1,2-b]pyridazin-3-yl)-2-fluorobenzoic acid trifluoroacetic acid salt]"
1,,"O=C(O)[C@H]1C[C@@H]1c1ccc(-c2c([C@H]3C[C@H](c4ccc5ccccc5n4)C3)nc3c(N4CCOCC4)ccnn23)cc1 [Cpd 170, (1R,2S)-2-(4-(8-Morpholino-2-((1R,3S)-3-(quinolin-2-yl)cyclobutyl)imidazo[1,2-b]pyridazin-3-yl)phenyl)cyclopropanecarboxylic acid]"
2,,"CC(C)(C(=O)O)c1ccc(-c2c([C@H]3C[C@H](c4ccc5ccccc5n4)C3)nc3c(N4CCOCC4)ccnn23)cc1 [Cpd 171, 2-Methyl-2-(4-(8-morpholino-2-((1R,3R)-3-(quinolin-2-yl)cyclobutyl)imidazo[1,2-b]pyridazin-3-yl)phenyl)propanoic acid]"
1,,"CC(C)(CC(=O)O)c1ccc(-c2c([C@H]3C[C@H](c4ccc5ccccc5n4)C3)nc3c(N4CCOCC4)ccnn23)cc1 [Cpd 172, 3-Methyl-3-{4-[8-morpholin-4-yl-2-(trans-3-quinolin-2-ylcyclobutyl)imidazo[1,2-b]pyridazin-3-yl]phenyl}butanoic acid]"
1,,"O=C(O)CC1(c2ccc(-c3c([C@H]4C[C@H](c5ccc6ccccc6n5)C4)nc4c(N5CCOCC5)ccnn34)cc2)COC1 [Cpd 174, 2-(3-(4-(8-Morpholino-2-((1R,3R)-3-(quinolin-2-yl)cyclobutyl)imidazo[1,2-b]pyridazin-3-yl)phenyl)oxetan-3-yl)acetic acid]"
11,,"CC(C)C[C@H](NC(=O)[C@H](C)N)C(=O)N[C@@H](C)C(=O)N[C@@H](CCCCNC(=O)c1ccc(-c2c(C#Cc3ccc4ccccc4n3)nc3c(N4CCOCC4)ccnn23)cc1)C(N)=O [Cpd 178, N—((S)-6-amino-5-((S)-2-((S)-2-((S)-2-aminopropanamido)-4-methylpentanamido)propanamido)-6-oxohexyl)-4-(8-morpholino-2-(quinolin-2-ylethynyl)imidazo[1,2-b]pyridazin-3-yl)benzamide] (H-ALAK(X1)-NH2)"
5,,"C[C@H](N)C(=O)N[C@@H](CCCCNC(=O)c1ccc(-c2c(C#Cc3ccc4ccccc4n3)nc3c(N4CCOCC4)ccnn23)cc1)C(N)=O [Cpd 179, N—((S)-6-amino-5-((S)-2-aminopropanamido)-6-oxohexyl)-4-(8-morpholino-2-(quinolin-2-ylethynyl)imidazo[1,2-b]pyridazin-3-yl)benzamide]"
5,,"NC(=O)[C@@H](N)CCCCNC(=O)c1ccc(-c2c(C#Cc3ccc4ccccc4n3)nc3c(N4CCOCC4)ccnn23)cc1 [Cpd 180, (S)—N-(5,6-diamino-6-oxohexyl)-4-(8-morpholino-2-(quinolin-2-ylethynyl)imidazo[1,2-b]pyridazin-3-yl)benzamide]"
6,,"NCC(=O)N[C@@H](CCCCNC(=O)c1ccc(-c2c(C#Cc3ccc4ccccc4n3)nc3c(N4CCOCC4)ccnn23)cc1)C(N)=O [Cpd 181, (S)—N-(6-amino-5-(2-aminoacetamido)-6-oxohexyl)-4-(8-morpholino-2-(quinolin-2-ylethynyl)imidazo[1,2-b]pyridazin-3-yl)benzamide]"
1,,"O=C(O)c1ccc(-c2c([C@H]3C[C@H](c4ccc5ccccc5n4)C3)nc3c(N4CCOCC4)cc(Cl)nn23)cc1 [compound 160, 4-(6-Chloro-8-morpholino-2-((1r,3r)-3-(quinolin-2-yl)cyclobutyl)imidazo[1,2-b]pyridazin-3-yl)benzoic acid trifluoroacetic acid salt]"
13,,"O=C(O)c1ccc(-c2c([C@H]3C[C@@H](c4ccc5ccccc5n4)C3)nc3c(N4CCOCC4)ccnn23)cc1 [compound 167, 4-(8-Morpholino-2-((1s,3s)-3-(quinolin-2-yl)cyclobutyl)imidazo[1,2-b]pyridazin-3-yl)benzoic acid trifluoroacetic acid salt]"

Structure (SMILES),IC50 [1] [nM],IC50 [2] [nM]
"Cc1ccc(-c2c(COc3ccc4ccccc4n3)nc3c(N4CCOCC4)ccnn23)cn1 [Cpd 1, 4-(3-(6-methylpyridin-3-yl)-2-((quinolin-2-yloxy)methyl)imidazo[1,2-b]pyridazin-8-yl)morpholine methane sulfonic acid]",115,46
"c1cncc(-c2c(COc3ccc4ccccc4n3)nc3c(N4CCOCC4)ccnn23)c1 [Cpd 2, 4-(3-(pyridin-3-yl)-2-((quinolin-2-yloxy)methyl)imidazo[1,2-b]pyridazin-8-yl)morpholine]",245,141
"Cn1nc(-c2ccc(-c3c(/C=C/c4ccc5ccccc5n4)nc4c(N5CCOCC5)ccnn34)cc2F)[nH]c1=O [Cpd 163, (E)-5-(2-Fluoro-4-(8-morpholino-2-(2-(quinolin-2-yl)vinyl)imidazo[1,2-b]pyridazin-3-yl)phenyl)-2-methyl-2H-1,2,4-triazol-3(4H)-one]",12,
"O=C(O)C1CCN(c2ccc(-c3c([C@H]4C[C@@H](c5ccc6ccccc6n5)C4)nc4c(N5CCOCC5)ccnn34)cc2)CC1 [compound 166, 1-(4-(8-Morpholino-2-((1s,3s)-3-(quinolin-2-yl)cyclobutyl)imidazo[1,2-b]pyridazin-3-yl)phenyl)piperidine-4-carboxylic acid]",93,
